Like-named read-outs stand apart in the source and are kept apart here.
Key:
A10 smooth muscle cells [1] = conditions: for response of detector cells (JC-1 fluorescence): five-concentration grid
Method: Cells were grown to confluence on tissue culture treated polystyrene in DMEM 10% FCS, 100 μg/ml streptomycin and 100 IU/ml penicillin. […] FCCP. FCCP (Sigma) was printed onto a supported porous aluminium oxide filter (Anopore, Whatman International Ltd, Maidstone, Kent, UK) in a 5×5 spot grid, at a single concentration of 50 μM in DMSO, or as five rows of five spots (50, 5, […], 0.05 and 0.005 μM in DMSO) and allowed to dry. The volume of liquid in each spot was approximately 1 nanoliter. The A10 cells were loaded for 25 min in KRW supplemented with 10% FCS and 5 μM JC-1 (Molecular Probes Inc.) at 37° C. After three washes in KRW, the cells were placed on the stage of a Nikon Diaphot epifluorescence microscope and imaged using a 2× plan apochromatic objective and a CCD camera (Princeton Instruments, NY USA). The cells were excited by 450-490 nm light and light emitted from the cells was filtered by a dichroic mirror (505 nm) and an emission filter (510-560 nm). Exposure/ntegration times of 0.5 s were used and images acquired at 4 s intervals. At the time indicated as 0 in FIGS. 8 and 9 a filter with spots of FCCP in the patterns mentioned above was lowered down into the buffer overlying the cells and rapidly adjusted to a distance of about 300 μm above the cell layer and thereafter fixed in that position.

A10 smooth muscle cells [2] = conditions: read-out: EC50 for a mitochondrial depolarisation in these cells, known value; cited from earlier work
BHKhM1 cells = test: Fluo-3 calcium response of BHKhM1 cells on porous membrane lowered onto compound spots on glass; assay type: cell-based; conditions: approx. 10 nanoliters
Method: Ionomycin was printed onto a glass surface at two concentrations (10 mM and 1 mM), and thapsigargin was printed onto the surface at 1 mM. All spots were allowed to dry. The volume of liquid spotted was approx. 10 nanoliters per spot. At the time indicated as 0 s the still-wet membrane with the cells was lowered down onto the glass surface so that the membrane and the glass came in direct contact, thereby dissolving the compounds deposited in the spots.

SMILES | response of detector cells (JC-1 fluorescence) (A10 smooth muscle cells [1]; spot concentration 0.005 μM in DMSO) | response of detector cells (JC-1 fluorescence) (A10 smooth muscle cells [1]; spot concentration 0.05 μM in DMSO) | response of detector cells (JC-1 fluorescence) (A10 smooth muscle cells [1]; spot concentration 0.5 μM in DMSO) | response of detector cells (JC-1 fluorescence) (A10 smooth muscle cells [1]; spot concentration 5 μM in DMSO) | response of detector cells (JC-1 fluorescence) (A10 smooth muscle cells [1]; spot concentration 50 μM in DMSO) | fluorescence intensity time profile (mitochondrial membrane depolarisation) (A10 smooth muscle cells [1]; spots of 50 μM in DMSO, 5×5 grid, single concentration) | lag phase before rise in fluorescence intensity (A10 smooth muscle cells [1]; spots of 50 μM in DMSO, approx. 1 nanoliter, five central spots) [s] | EC50 (A10 smooth muscle cells [2]) [nM] | Fluo-3 fluorescence response (time profile) (BHKhM1 cells; spots printed at 1 mM) | Fluo-3 fluorescence response (onset, spatial size, intensity) (BHKhM1 cells; spots printed at 10 mM) | Fluo-3 fluorescence response (time profile) (BHKhM1 cells; spots printed at 10 mM)
N#CC(C#N)=NNc1ccc(OC(F)(F)F)cc1 [FCCP, carbonyl cyanide p-trifluoromethoxyphenylhydrazone] | do not show detectable responses | do not show detectable responses | clearly give positive responses | clearly give positive responses | quickest response | steep rise in fluorescence intensity | 10 to 15 | ~8 |  |  | 
C[C@H](CCC(=O)O)C[C@H](C)C[C@H](C)C(=O)/C=C(\O)[C@H](C)C[C@H](C)C/C=C/[C@@H](C)[C@@H](O)[C@@H](C)[C@@H](O)C[C@@H]1CC[C@@](C)([C@H]2CC[C@@](C)([C@@H](C)O)O2)O1 [Ionomycin, ionomycin] |  |  |  |  |  |  |  |  | sustained responses | earliest, spatially largest, and most intense response | sustained responses
C/C=C(/C)C(=O)O[C@H]1C(C)=C2[C@H]([C@@H]1OC(=O)CCCCCCC)[C@@](C)(OC(C)=O)C[C@H](OC(=O)CCC)[C@@]1(O)[C@H]2OC(=O)[C@@]1(C)O [thapsigargin] |  |  |  |  |  |  |  |  | transient and lower in intensity than that of either concentration of ionomycin |  | 
